Where “and” joins values, the source holds several entries; their conditions need not be identical. Equal values may be shown once. Read-outs that look alike come from different tables or passages of the source.
Columns and labels:
[1] = test system: M. gastrocnemius contractions; type: in vivo, guinea pig; settings: for 1× ED90 dose: rocuronium i.v. bolus, established in each animal
Experimental: Male healthy mature guinea pigs were anesthetised with 30 mg·kg^−1 pentobarbitone and 900 mg·kg^−1 urethane i.p. The guinea pigs were artificially ventilated with room air (4.5-5.5 ml; 50-60 strokes/min). Catheters were placed in both jugular veins and a third catheter was placed in the carotid artery for continuous monitoring of arterial blood pressure and the taking of blood samples for blood gas analysis.
Heart rate was derived from the blood pressure signal.
Body temperature was maintained at 37-38° C. using an electrical heating pad.
The gastrocnemius muscle was dissected free from surrounding muscles and set up for recording twitch tension using a force transducer. A resting tension of 250-300 mN was applied to the muscle. A stimulation electrode was placed around the sciatic nerve, which was crushed centrally to the electrode to prevent reflex responses. The gastrocnemius muscle was stimulated indirectly via the sciatic nerve with rectangular pulses of 0.5 ms duration at 10 s (0.1 Hz) intervals at a supra maximal voltage using a Grass S88 Stimulator.
Animals were allowed to stabilise for […] before the start of the experiment. Firstly, the 1×ED90 blocking dose of rocuronium was established in each animal followed by complete spontaneous recovery of muscle contractions. After at least 30 minutes, all animals received a 10×ED90 blocking dose of rocuronium by intravenous bolus injection. One minute after bolus injection of rocuronium, the animals received either 2300 nmol·kg^−1 Org 25969 in saline or an equivalent volume of saline. Time to 25%, 50%, 75% and 90% recovery of twitch height was measured from the moment of injection of Org 25969 or saline, respectively.
Rocuronium bromide was dissolved in a pH 4.0 citric acid/phosphate/mannitol buffer. Org 25969 was dissolved in saline.

[2] = test system: M. adductor pollicis contractions; assay: Rocuronium-induced block of M. adductor pollicis contractions (TOF stimulation) and effect of Org 25969 in anaesthetised Rhesus monkeys; type: in vivo, Rhesus monkey
Experimental: (§1) • T1: first twitch: amplitude of the first response to TOF stimulation, expressed as percentage of control T1 (%). • T4/T1 ratio: the ratio of T4 over T1 (within one TOF stimulus) expressed as decimals.
Female Rhesus monkeys were starved overnight and sedated with 10 mg·kg^−1 ketamine i.m., followed by i.v. injection of 25 mg·kg^−1 pentobarbitone sodium and subsequent infusion of 5-10 mg·kg^−1hr^−1. The animals were intubated and ventilated with a mixture of oxygen and nitrous oxide (2:3), using a ventilator. The expired CO2 level was measured using a capnograph. The tidal volume was adjusted to obtain a CO2 level of approximately 4.5%. Oxygen saturation was measured via a probe on the earlobe using a pulse oxymeter. Blood pressure was measured non-invasively with a cuff placed on the tail. The ECG was recorded and heart rate was measured. Rectal temperature was measured and body temperature was kept at 37-38° C. using a heating blanket. The right hand and right arm of the animal were fixed to a frame using surgical tape. The thumb was connected to a force transducer. A pre-load of 200-500 mN was applied. Two needle electrode were placed near the N. ulnaris and the nerve was stimulated with train-of-four pulses (pulse duration: 2 ms, train-frequency: 0.07 Hz). At the end of the experiment, the animals were allowed to recover from anesthesia. Appropriate recovery care was given to all animals. Two groups of monkeys were used to assess the reversal effects of Org 25969 against the neuromuscular blocking agents rocuronium (Esmeron®/Zemuron®) and vecuronium (Norcuron®). In the first group, animals initially received an intravenous bolus injection of a 1×ED90 dose of rocuronium bromide to induce neuromuscular block, followed by spontaneous recovery of the twitches. After complete recovery of the twitches, each group received a second and larger 5×ED90 dose of rocuronium followed by spontaneous recovery in one subgroup, whereas the other subgroup received an intravenous bolus dose of 1150 nmol·kg^−1 Org 25969 as soon as all twitches had disappeared. In the vecuronium groups of animals, the same protocol was used, but rocuronium was replaced by vecuronium. Rocuronium bromide and vecuronium bromide were dissolved in a citric acid/phosphate/mannitol buffer (pH 4.0). Org 25969 was dissolved in saline.

[3] = test system: deep block induced by rocuronium; type: in vivo, human
Text: A simple method of monitoring neuromuscular function is the train-of-four (TOF) technique using an acceleromyograph (TOF Watch®). Four electrical stimuli each 0.5 seconds apart (and for instance applied at 12-15 seconds intervals) are applied along the course of the ulnar nerve in the arm. Stimulation of the ulnar nerve causes contraction of the adductor pollicis muscle and movement of the thumb. Response can be noted visually or, more accurately, by placing a finger lightly on the surface of the hand over the muscle to feel the contraction. A baseline response check is done to ensure that there are four muscle twitches in response to the four stimuli. Normal baseline and full recovery is indicated by four twitches of equal strenght. As the number of acetylcholine receptors occupied by NMBAs increases, the number of twitches decreases, no twitches indicating total paralysis.
as §1
10 Volunteers, which were enrolled in a phase 1 trial with the objective to investigate the safety, pharmacokinetics and efficacy of Org 25969, received general anesthesia using i.v. administration of remifentanil followed by propofol (Target controlled Infusion—Diprifusor®) for induction and maintenance. After induction of anesthesia and set-up of the TOF-Watch®SX subjects received a i.v. bolus dose of 0.6 mg·kg^−1 rocuronium bromide (Esmeron®) given by hand over 5 seconds. Between the administration of rocuronium and the administration of Org 25969, a laryngeal mask was applied or tracheal intubation was performed to ventilate the subjects. At 3 minutes after rocuronium bromide administration (i.e. deep block) either placebo (commercially physiological salt solution, 0.9% sodium chloride) or Org 25969 (25 mg/ml) were given as a bolus dose into a fast running infusion in the forearm. Six dose levels of Org 25969 were given to these 10 volunteers. Neuromuscular block was measured using the TOF-Watch-SX® acceleromyograph for at least 90 minutes after administration of Org 25969 or placebo.

[4] = 10× ED90 rocuronium, 2300 nmol · kg^−1 Org 25969 i.v. one minute later (group 2), time from injection of Org 25969
[5] = 5× ED90 rocuronium + 1150 nmol · kg^−1 Org 25969 i.v.
[6] = 5× ED90 rocuronium in the subgroup given 1150 nmol · kg^−1 Org 25969 once all twitches had disappeared
[7] = 1× ED90 rocuronium i.v., spontaneous recovery, group 1
[8] = 1× ED90 rocuronium i.v., spontaneous recovery, group 2
[9] = 10× ED90 rocuronium i.v. bolus, group 1
[10] = 10× ED90 rocuronium i.v. bolus, group 2
[11] = 10× ED90 rocuronium, saline one minute later (group 1), time from injection of saline
[12] = 1× ED90 rocuronium, spontaneous recovery
[13] = 5× ED90 rocuronium, spontaneous recovery
[14] = 5× ED90 rocuronium, spontaneous recovery subgroup

## O=C(O)CCSC[C@H]1O[C@@H]2O[C@H]3[C@H](O)[C@@H](O)[C@@H](O[C@H]4[C@H](O)[C@@H](O)[C@@H](O[C@H]5[C@H](O)[C@@H](O)[C@@H](O[C@H]6[C@H](O)[C@@H](O)[C@@H](O[C@H]7[C@H](O)[C@@H](O)[C@@H](O[C@H]8[C@H](O)[C@@H](O)[C@@H](O[C@H]9[C@H](O)[C@@H](O)[C@@H](O[C@H]1[C@H](O)[C@H]2O)O[C@@H]9CSCCC(=O)O)O[C@@H]8CSCCC(=O)O)O[C@@H]7CSCCC(=O)O)O[C@@H]6CSCCC(=O)O)O[C@@H]5CSCCC(=O)O)O[C@@H]4CSCCC(=O)O)O[C@@H]3CSCCC(=O)O [Org 25969, 6-per-deoxy-6-per-(2-carboxyethyl)thio-γ-cyclodextrin]
[1]; 10× ED90 rocuronium, 2300 nmol · kg^−1 Org 25969 i.v. one minute later (group 2)
  25-75% recovery index: 1.3 min and 1.3 ± 0.4 min
[1]; [4]
  time to 25% recovery: 3.7 ± 0.4 min
  time to 90% recovery: 8.5 min and 8.5 ± 2.2 min
[2]; 1150 nmol·kg^−1 Org 25969, 5×ED90 of either blocker
  effectiveness against rocuronium compared with vecuronium (in words): more effective against a 5×ED90 dose of rocuronium
[2]; 1150 nmol·kg^−1 Org 25969 i.v. after 5×ED90 rocuronium
  reversal of rocuronium-induced neuromuscular block (in words): rapid reversal
[2]; [5]
  0.50-0.90 TOF ratio interval: 4.0 ± 0.9 min
  25-75% recovery index: 3.1 ± 0.8 min
  time to 25% recovery of T1: 3.8 ± 0.7 min
  time to 90% recovery of T1: 9.5 ± 1.9 min
  time to TOF ratio 0.90: 7.9 ± 1.8 min
[2]; [6]
  block: 100.0 ± 0.0%
  onset time: 0.5 ± 0.1 min
[3]; Org 25969 0.1 mg · kg^−1 i.v. bolus 3 minutes after 0.6 mg·kg^−1 rocuronium bromide, individual volunteer
  Time to TOF ratio 0.9: 43 min
[3]; Org 25969 0.5 mg · kg^−1 i.v. bolus 3 minutes after 0.6 mg·kg^−1 rocuronium bromide, individual volunteer
  Time to TOF ratio 0.9: 71 min
[3]; Org 25969 1.0 mg · kg^−1 i.v. bolus 3 minutes after 0.6 mg·kg^−1 rocuronium bromide, individual volunteers
  Time to TOF ratio 0.9: 23 min and 31 min
[3]; Org 25969 2.0 mg · kg^−1 i.v. bolus 3 minutes after 0.6 mg·kg^−1 rocuronium bromide, individual volunteers
  Time to TOF ratio 0.9: 13 min and 17 min
[3]; Org 25969 4.0 mg · kg^−1 i.v. bolus 3 minutes after 0.6 mg·kg^−1 rocuronium bromide, individual volunteers
  Time to TOF ratio 0.9: 2.5 min and 3.2 min
[3]; Org 25969 8.0 mg · kg^−1 i.v. bolus 3 minutes after 0.6 mg·kg^−1 rocuronium bromide, individual volunteers
  Time to TOF ratio 0.9: ≤ 2 min and 1.0 min and 1.2 min
[3]; human, in vivo
  re-curarisation: no signs of re-curarisation

## C=CC[N+]1([C@H]2C[C@H]3[C@@H]4CC[C@H]5C[C@H](O)[C@@H](N6CCOCC6)C[C@]5(C)[C@H]4CC[C@]3(C)[C@H]2OC(C)=O)CCCC1 [rocuronium, rocuronium bromide]
[1]; [7]
  25-75% recovery index: 3.5 ± 0.4 min
  max recovery: 101.1 ± 1.3%
  max recovery after (time): 15.1 ± 2.1 min
  time to 25% recovery: 5.1 ± 0.7 min
  time to 90% recovery: 10.7 ± 1.5 min
[1]; [8]
  25-75% recovery index: 2.3 ± .5 min
  max recovery: 101.4 ± 2.8%
  max recovery after (time): 12.5 ± 1.7 min
  time to 25% recovery: 3.8 ± 0.5 min
  time to 90% recovery: 8.7 ± 1.4 min
[1]; 1× ED90 rocuronium i.v., group 1
  onset time: 2.6 ± 0.3 min
[1]; 1× ED90 rocuronium i.v., group 1, Mean ± SEM, n = 6
  max block: 89.7 ± 2.4%
[1]; 1× ED90 rocuronium i.v., group 2
  onset time: 2.1 ± 0.3 min
[1]; 1× ED90 rocuronium i.v., group 2, Mean ± SEM, n = 6
  max block: 91.0 ± 2.5%
[1]; [9]
  max block: 100.0 ± 0.0%
  onset time: 2.0 ± 0.8 min
[1]; [10]
  max block: 100.0 ± 0.0%
  onset time: 1.7 ± 0.5 min
[1]; 10× ED90 rocuronium, saline one minute later (group 1)
  25-75% recovery index: 15.9 min and 15.9 ± 4.0 min
[1]; [11]
  time to 25% recovery: 47.5 ± 7.0 min
  time to 90% recovery: 78.3 min and 78.3 ± 15.2 min
[1]; group 1, Mean ± SEM, n = 6
  1× ED90 dose: 178 ± 22 nmol/kg
[1]; group 2, Mean ± SEM, n = 6
  1× ED90 dose: 169 ± 15 nmol/kg
[2]; 1× ED90 rocuronium
  onset time: 1.2 ± 0.0 min
[2]; [12]
  0.50-0.90 TOF ratio interval: 2.6 ± 0.2 min
  25-75% recovery index: 3.3 ± 0.4 min
  time to 25% recovery of T1: 4.5 ± 0.6 min
  time to 90% recovery of T1: 9.6 ± 0.9 min
  time to TOF ratio 0.90: 8.4 ± 0.9 min
[2]; 1× ED90 rocuronium, Mean ± SEM, n = 4
  block: 93.3 ± 1.9%
[2]; [13]
  0.50-0.90 TOF ratio interval: 6.9 ± 0.8 min
  25-75% recovery index: 6.0 ± 0.6 min
  time to 25% recovery of T1: 18.5 ± 2.1 min
  time to 90% recovery of T1: 27.7 ± 3.2 min
  time to TOF ratio 0.90: 28.2 ± 3.4 min
[2]; [14]
  block: 100.0 ± 0.0%
  onset time: 0.7 ± 0.2 min
[3]; 0.6 mg·kg^−1 rocuronium bromide i.v., placebo at 3 minutes, time from placebo, n = 10
  Time to TOF ratio 0.9: 35 to 69 min

Reference: patent US20050153932A1, “Controlled muscle relaxation” (priority 2003, published 2005)
